Reference: ChEMBL document CHEMBL1157213, “2-Amino-5-thiazolyl motif: a novel scaffold for designing anti-inflammatory agents of diverse structures” (Eur J Med Chem, 2008)

Key:
[1] = target: T1, Prostaglandin G/H synthase 2 (Homo sapiens) (UniProt P35354); assay: Inhibition of COX2 at 10 uM
T1 sequence (whole entry): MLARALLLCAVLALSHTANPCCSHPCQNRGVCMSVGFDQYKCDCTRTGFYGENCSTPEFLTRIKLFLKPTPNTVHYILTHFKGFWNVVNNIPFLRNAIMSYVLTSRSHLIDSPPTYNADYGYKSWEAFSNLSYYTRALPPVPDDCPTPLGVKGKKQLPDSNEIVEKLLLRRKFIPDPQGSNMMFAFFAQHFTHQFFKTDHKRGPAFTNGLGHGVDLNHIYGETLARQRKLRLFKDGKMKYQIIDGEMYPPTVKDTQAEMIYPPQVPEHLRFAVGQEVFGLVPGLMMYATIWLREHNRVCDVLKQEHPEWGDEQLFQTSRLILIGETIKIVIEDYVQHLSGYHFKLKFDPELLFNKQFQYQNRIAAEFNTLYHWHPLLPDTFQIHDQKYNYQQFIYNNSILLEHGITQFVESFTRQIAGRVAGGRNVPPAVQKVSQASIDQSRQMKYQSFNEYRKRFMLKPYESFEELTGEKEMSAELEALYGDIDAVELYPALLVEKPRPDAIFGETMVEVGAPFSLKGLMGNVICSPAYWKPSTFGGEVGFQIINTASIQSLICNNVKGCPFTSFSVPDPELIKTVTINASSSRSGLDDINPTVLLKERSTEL

[2] = system: Rattus norvegicus; assay: Antiinflammatory activity against formalin-induced chronic paw edema rat inflammatory model assessed as reduction of paw volume at 100 mg/kg, po after 4 days relative to control; format: functional; set-up: scale not given: the % may be the effect or the level left
[3] = system: Rattus norvegicus; assay: Antiinflammatory activity against formalin-induced chronic paw edema rat inflammatory model assessed as reduction of paw volume at 100 mg/kg, po after 3 days relative to control; format: functional; set-up: scale not given: the % may be the effect or the level left
[4] = target: Prostaglandin G/H synthase 1 (Homo sapiens) (UniProt P23219); assay: Inhibition of COX1 at 10 uM
[5] = system: Rattus norvegicus; assay: Antiinflammatory activity against formalin-induced chronic paw edema rat inflammatory model assessed as reduction of paw volume at 100 mg/kg, po after 5 days relative to control; format: functional; set-up: scale not given: the % may be the effect or the level left
[6] = system: Rattus norvegicus; assay: Antiinflammatory activity against formalin-induced chronic paw edema rat inflammatory model assessed as reduction of paw volume at 100 mg/kg, po after 2 days relative to control; format: functional; set-up: scale not given: the % may be the effect or the level left
[7] = system: Rattus norvegicus; assay: Antiinflammatory activity against carrageenan-induced acute paw edema Sprague-Dawley rat inflammatory model assessed as reduction of paw volume at 100 mg/kg, po after 3 hrs relative to control; format: functional; set-up: scale not given: the % may be the effect or the level left
[8] = system: Rattus norvegicus; assay: Antiinflammatory activity against formalin-induced chronic paw edema rat inflammatory model assessed as reduction of paw volume at 100 mg/kg, po after 1 day relative to control; format: functional; set-up: scale not given: the % may be the effect or the level left
[9] = system: Rattus norvegicus; assay: Toxic gastric-ulcerogenic effect in Sprague-Dawley rat assessed as lesion score at 100 mg/kg, po after 7 days; format: toxicity, organism-based; set-up: dose 100 mg/kg, route oral; settings: in vivo, 168 h
[10] = system: Rattus norvegicus; assay: Antiinflammatory activity against formalin-induced chronic paw edema rat inflammatory model assessed as reduction of paw volume at 5 mg/kg, po after 2 days relative to control; format: functional; set-up: scale not given: the % may be the effect or the level left
[11] = system: Rattus norvegicus; assay: Antiinflammatory activity against formalin-induced chronic paw edema rat inflammatory model assessed as reduction of paw volume at 5 mg/kg, po after 5 days relative to control; format: functional; set-up: scale not given: the % may be the effect or the level left
[12] = system: Rattus norvegicus; assay: Antiinflammatory activity against formalin-induced chronic paw edema rat inflammatory model assessed as reduction of paw volume at 5 mg/kg, po after 3 days relative to control; format: functional; set-up: scale not given: the % may be the effect or the level left
[13] = system: Rattus norvegicus; assay: Antiinflammatory activity against formalin-induced chronic paw edema rat inflammatory model assessed as reduction of paw volume at 5 mg/kg, po after 4 days relative to control; format: functional; set-up: scale not given: the % may be the effect or the level left
[14] = system: Rattus norvegicus; assay: Antiinflammatory activity against carrageenan-induced acute paw edema Sprague-Dawley rat inflammatory model assessed as reduction of paw volume at 5 mg/kg, po after 3 hrs relative to control; format: functional; set-up: scale not given: the % may be the effect or the level left
[15] = system: Rattus norvegicus; assay: Antiinflammatory activity against formalin-induced chronic paw edema rat inflammatory model assessed as reduction of paw volume at 5 mg/kg, po after 1 day relative to control; format: functional; set-up: scale not given: the % may be the effect or the level left
[16] = system: Rattus norvegicus; assay: Antiinflammatory activity against formalin-induced chronic paw edema rat inflammatory model assessed as reduction of paw volume at 50 mg/kg, po after 4 days relative to control; format: functional; set-up: scale not given: the % may be the effect or the level left
[17] = system: Rattus norvegicus; assay: Antiinflammatory activity against formalin-induced chronic paw edema rat inflammatory model assessed as reduction of paw volume at 50 mg/kg, po after 3 days relative to control; format: functional; set-up: scale not given: the % may be the effect or the level left
[18] = system: Rattus norvegicus; assay: Antiinflammatory activity against formalin-induced chronic paw edema rat inflammatory model assessed as reduction of paw volume at 50 mg/kg, po after 5 days relative to control; format: functional; set-up: scale not given: the % may be the effect or the level left
[19] = system: Rattus norvegicus; assay: Antiinflammatory activity against formalin-induced chronic paw edema rat inflammatory model assessed as reduction of paw volume at 50 mg/kg, po after 2 days relative to control; format: functional; set-up: scale not given: the % may be the effect or the level left
[20] = system: Rattus norvegicus; assay: Antiinflammatory activity against carrageenan-induced acute paw edema Sprague-Dawley rat inflammatory model assessed as reduction of paw volume at 50 mg/kg, po after 3 hrs relative to control; format: functional; set-up: scale not given: the % may be the effect or the level left
[21] = system: Rattus norvegicus; assay: Antiinflammatory activity against formalin-induced chronic paw edema rat inflammatory model assessed as reduction of paw volume at 50 mg/kg, po after 1 day relative to control; format: functional; set-up: scale not given: the % may be the effect or the level left

Prostaglandin G/H synthase 1 (Homo sapiens), sequence (P23219 whole entry): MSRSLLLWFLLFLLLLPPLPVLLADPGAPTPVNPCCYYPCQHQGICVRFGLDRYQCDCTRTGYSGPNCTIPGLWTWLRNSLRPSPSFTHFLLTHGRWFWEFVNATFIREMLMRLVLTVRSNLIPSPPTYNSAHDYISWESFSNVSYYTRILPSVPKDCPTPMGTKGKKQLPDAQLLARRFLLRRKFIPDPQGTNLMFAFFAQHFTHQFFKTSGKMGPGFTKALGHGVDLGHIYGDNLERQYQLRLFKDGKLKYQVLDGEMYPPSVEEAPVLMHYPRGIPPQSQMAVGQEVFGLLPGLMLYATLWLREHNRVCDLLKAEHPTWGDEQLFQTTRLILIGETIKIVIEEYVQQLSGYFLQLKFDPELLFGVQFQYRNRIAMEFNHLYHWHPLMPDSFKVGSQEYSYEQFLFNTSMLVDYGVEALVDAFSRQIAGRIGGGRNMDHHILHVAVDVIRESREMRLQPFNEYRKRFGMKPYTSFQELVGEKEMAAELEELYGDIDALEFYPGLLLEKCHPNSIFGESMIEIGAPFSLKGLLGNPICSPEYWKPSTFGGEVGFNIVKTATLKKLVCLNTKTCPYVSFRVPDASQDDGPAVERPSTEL

## O=C(Nc1nc(-c2ccccc2)c(C(=O)C(=O)c2sc(NC(=O)c3ccccc3)nc2-c2ccccc2)s1)c1ccccc1
[1]
  inhibition: 19.3%
[2]
  Activity: 38%
[3]
  Activity: 84%
[4]
  inhibition: 6.31%
[5]
  Activity: 41%
[6]
  Activity: 92%
[7]
  Activity: 73%
[8]
  Activity: 88%
[9]
  Activity: 12 mm

## COC(=O)Nc1nc(N(C)C)c(C(=O)c2ccc(S(C)(=O)=O)cc2)s1
[1]
  inhibition: 15.2%
[2]
  Activity: 43%
[3]
  Activity: 26%
[4]
  inhibition: 4.13%
[5]
  Activity: 0%
[6]
  Activity: 40%
[7]
  Activity: 30%
[8]
  Activity: 29%

## CC(=O)Oc1ccccc1C(=O)O [ASPIRIN]
[9]
  Activity: 5 mm

## CS(=O)(=O)c1ccc(C(=O)c2sc(N3CCOCC3)nc2-c2ccccc2)cc1
[1]
  inhibition: 10.4%
[2]
  Activity: 38%
[3]
  Activity: 42%
[4]
  inhibition: -5.91%
[5]
  Activity: 27%
[6]
  Activity: 44%
[7]
  Activity: 63%
[8]
  Activity: 88%

## C[C@@H]1C[C@H]2[C@@H]3CCC4=CC(=O)C=C[C@]4(C)[C@@]3(F)[C@@H](O)C[C@]2(C)[C@@]1(O)C(=O)CO [DEXAMETHASONE]
[10]
  Activity: 92%
[11]
  Activity: 94%
[12]
  Activity: 96%
[13]
  Activity: 89%
[14]
  Activity: 85%
[15]
  Activity: 70%

## CC(C)Cc1ccc(C(C)C(=O)O)cc1 (stereo not given) [IBUPROFEN]
[9]
  Activity: 12 mm

## CNc1nc(N(C)C)c(C(=O)/C(=N/OC)C(=O)OC)s1
[1]
  inhibition: 19.5%
[2]
  Activity: 72%
[3]
  Activity: 95%
[4]
  inhibition: -6.25%
[5]
  Activity: 66%
[6]
  Activity: 90%
[7]
  Activity: 83%
[8]
  Activity: 96%

## CS(=O)(=O)c1ccc(C2=C(c3ccccc3)C(=O)OC2)cc1 [ROFECOXIB]
[16]
  Activity: 29%
[17]
  Activity: 35%
[18]
  Activity: 30%
[19]
  Activity: 32%
[20]
  Activity: 40%
[21]
  Activity: 39%

## CCOC(=O)Nc1nc(C)c(/C(=N\O)c2ccc(S(C)(=O)=O)cc2)s1
[1]
  inhibition: 8.91%
[2]
  Activity: 47%
[3]
  Activity: 72%
[4]
  inhibition: -3.61%
[5]
  Activity: 5%
[6]
  Activity: 78%
[7]
  Activity: 69%
[8]
  Activity: 29%
